Data reported in patent US9861604B2, “Coriolus versicolor extracts, methods of isolating biologically-active compounds, and uses thereof” (priority 2012, dated 2018).

What was measured:
Assay type in all cases: cell-based, human
MMP-3 [1] = assay: TNF-α induced MMP-3 mRNA level in T98G cells (TaqMan); settings: 10, 25 and 50 μg/ml 18 hr, then TNF-α 10 ng/ml 3 hr, FIG. 16
Experimental: Glioblastoma (T98G, brain cells) cells were pretreated with different batches of ethanol extract or purified compounds of C. versicolor for 18 hr, and then treated with recombinant human TNF-α (10 ng/ml) for another 3 hr. Total RNA extraction was performed by TRIzol reagent (Invitrogen) according to the manufacturer's instructions. Total RNA was reverse transcribed by Superscript II reverse transcriptase (Invitrogen) with oligo (dT) primers. MMP-3 mRNA levels were analyzed by TaqMan Gene Expression Assays (Applied Biosystems).
Briefly, glioblastoma (T98G; brain cells) cells were pretreated with MPUB-EtOH at different concentrations (1, 10 and 50 ug/ml) for 18 hrs, and then treated with recombinant human TNFα (10 ng/ml) for 3 hrs. MMP-3 mRNA levels were analyzed by TaqMan Gene Expression Assays. […] A p value of <0.05 (*) was considered statistically significant.

MMP-3 [2] = assay: TNF-α induced MMP-3 protein expression in T98G cells (ELISA); settings: 10, 25 and 50 μg/ml 18 hr, then TNF-α 10 ng/ml 24 hr, FIG. 17
Experimental: T98G cells were pretreated with different batches of ethanol extract of C. versicolor for 18 hr, and then treated with recombinant human TNF-α (10 ng/ml) for another 24 hr. Protein levels of MMP-3 in the cell culture supernatants were analyzed by enzyme-linked immunosorbent assays (ELISA) using commercially available assay kits (R&D Systems).

T98G cells = assay: MTT assay on T98G cells; settings: 10, 25 and 50 μg/ml, time course of 48 hr, FIG. 19
Experimental: T98G cells were incubated with different batches of ethanol extract or purified compounds of C. versicolor for 48 hr. After treatment, MTT (3-[4,5-dimethylthiazol-2-yl]-2,5-di-phenyltetrazolim bromide) (Sigma) was added to the medium at a final concentration of 1 mg/ml and followed by 2 hr incubation at 37° C. MTT formazan formed was then dissolved in 200 μl of isopropanol and the absorbance of the supernatant was measured at 570 nm using a 96-well microplate reader.

[3] = system: Glioblastoma (T98G) cells; assay: Matrigel Invasion Chamber tumor cell invasion assay, T98G; settings: 25 μg/ml 18 hr, invasion 24 hr; FIG. 22
Experimental: Cell invasiveness was studied using BD BioCoat™ Matrigel™ Invasion Chamber (BD Biosciences). T98G cells suspended in MEM containing 1% FBS, 1% penicillin-streptomycin and 1% sodium pyruvate were seeded overnight on top of gel in each chamber. Bicarbonate based culture medium was added into the bottom wells of the plate. After incubation, the cells were treated with ethanol extract of C. versicolor/Cove-1 for 18 hr. The chambers were then transferred to a new plate with each well containing MEM supplemented with 10% FBS. Cells were allowed to invade through the matrices at 37° C. for another 24 hr. After the invasion assay, invaded cells on the lower surface of the chamber were fixed with 100% methanol for 2 min, and stained with Crystal Violet. The number of invading cells was quantified by counting under a light microscope.
Specifically, the effect of C. versicolor on cancer cell invasiveness was studied using a Matrigel Invasion Chamber. […] The number of invading cells was quantified by counting under a light microscope.
Specifically, the effect of 9-KODE methyl ester on cell invasiveness was studied using Matrigel Invasion Chamber. Glioblastoma (T98G) cells were treated with 9-KODE methyl ester for 18 hr, and then the cells were allowed to invade through the matrices for another 24 hr. The number of invading cells was quantified by counting under a light microscope.

CCCCC/C=C/C=C/C(=O)CCCCCCCC(=O)OC [Cove-1, 9-oxo-10E,12E-octadecadienoic acid methyl ester]
TNF-α induced MMP-3 mRNA level (MMP-3 [1]): suppressed TNF-α induced MMP-3 mRNA level
TNF-α induced MMP-3 protein expression (MMP-3 [2]): inhibited TNF-α induced MMP-3 protein expression
metabolic activities of the cells (MTT) (T98G cells): no significant differences in the metabolic activities
T98G cell invasiveness (number of invading cells) [3]: reduced the invasiveness of T98G significantly
